From ChEMBL document CHEMBL4251622, “Design, synthesis, and biological evaluation of polo-like kinase 1/eukaryotic elongation factor 2 kinase (PLK1/EEF2K) dual inhibitors for regulating breast cancer cells apoptosis and autophagy” (Eur J Med Chem, 2018)
Active and inactive are the calls of the source. The calls are words filed in the database; no cut-off is given here.

Columns and labels:
BT-483 [1] = assay: Induction of apoptosis in human BT-483 cells assessed as live cells at 5 uM by Annexin V-FITC/propidium iodide staining based flow cytometry (reference value: 87.5%); format: functional
BT-483 [2] = assay: Induction of apoptosis in human BT-483 cells assessed as late apoptotic cells at 10 uM by Annexin V-FITC/propidium iodide staining based flow cytometry (reference value: 0.36%); format: functional
SK-BR-3 = assay: Cytotoxicity against human SKBR3 cells after 24 hrs by MTT assay; format: functional, cell-based
MDA-MB-468 = assay: Cytotoxicity against human MDA-MB-468 cells after 24 hrs by MTT assay; format: functional, cell-based
[3] = biological target: Serine/threonine-protein kinase PLK1 (Homo sapiens, UniProt P53350); assay: Inhibition of PLK1 autophosphorylation in human BT-483 cells at 5 to 10 uM by Western blot analysis; format: cell-based
Serine/threonine-protein kinase PLK1, sequence (P53350 whole entry): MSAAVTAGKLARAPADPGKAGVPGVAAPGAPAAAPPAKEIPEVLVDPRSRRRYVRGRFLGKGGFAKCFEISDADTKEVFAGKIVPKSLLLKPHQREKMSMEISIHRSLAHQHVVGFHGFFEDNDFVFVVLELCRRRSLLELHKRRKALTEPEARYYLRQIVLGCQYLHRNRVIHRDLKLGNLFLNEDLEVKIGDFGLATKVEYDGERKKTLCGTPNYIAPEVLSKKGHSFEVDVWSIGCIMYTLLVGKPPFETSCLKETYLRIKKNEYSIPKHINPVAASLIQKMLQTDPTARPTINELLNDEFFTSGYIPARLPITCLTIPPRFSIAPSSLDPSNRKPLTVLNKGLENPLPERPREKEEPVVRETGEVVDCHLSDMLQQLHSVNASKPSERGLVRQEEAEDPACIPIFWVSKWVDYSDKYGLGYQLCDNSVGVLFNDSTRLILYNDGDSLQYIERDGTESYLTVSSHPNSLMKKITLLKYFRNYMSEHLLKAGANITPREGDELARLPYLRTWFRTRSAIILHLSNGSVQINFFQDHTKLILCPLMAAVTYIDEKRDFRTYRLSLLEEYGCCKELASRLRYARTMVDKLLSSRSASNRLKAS

BT-483 [4] = assay: Effect on total PLK1 protein expression in human BT-483 cells at 5 to 10 uM by Western blot analysis; format: ADME, cell-based; conditions: bt-483, 10 µM
BT-483 [5] = assay: Effect on total EEF2K protein expression in human BT-483 cells at 5 to 10 uM by Western blot analysis; format: ADME, cell-based; conditions: bt-483, 10 µM
BT-483 [6] = assay: Upregulation of Bad protein expression in human BT-483 cells at 5 to 10 uM by Western blot analysis; format: functional, cell-based
[7] = biological target: RAC-alpha serine/threonine-protein kinase (Homo sapiens) (UniProt P31749); assay: Inhibition of wild-type human partial length AKT1 expressed in bacterial expression system assessed as residual activity at 1 uM by Kinomescan method relative to control
[8] = biological target: ALK tyrosine kinase receptor (Homo sapiens) (UniProt Q9UM73); assay: Inhibition of wild-type human partial length ALK (I1088 to E1409 residues) expressed in mammalian expression system assessed as residual activity at 1 uM by Kinomescan method relative to control
[9] = biological target: Tyrosine-protein kinase receptor UFO (Homo sapiens) (UniProt P30530); assay: Inhibition of wild-type human partial length AXL (R497 to Y821 residues) expressed in bacterial expression system assessed as residual activity at 1 uM by Kinomescan method relative to control
[10] = biological target: Serine/threonine-protein kinase B-raf (Homo sapiens) (UniProt P15056); assay: Inhibition of wild-type human partial length BRAF (S429 to E741 residues) expressed in mammalian expression system assessed as residual activity at 1 uM by Kinomescan method relative to control
Serine/threonine-protein kinase B-raf (Homo sapiens), sequence (P15056 whole entry, the tested form may be a part): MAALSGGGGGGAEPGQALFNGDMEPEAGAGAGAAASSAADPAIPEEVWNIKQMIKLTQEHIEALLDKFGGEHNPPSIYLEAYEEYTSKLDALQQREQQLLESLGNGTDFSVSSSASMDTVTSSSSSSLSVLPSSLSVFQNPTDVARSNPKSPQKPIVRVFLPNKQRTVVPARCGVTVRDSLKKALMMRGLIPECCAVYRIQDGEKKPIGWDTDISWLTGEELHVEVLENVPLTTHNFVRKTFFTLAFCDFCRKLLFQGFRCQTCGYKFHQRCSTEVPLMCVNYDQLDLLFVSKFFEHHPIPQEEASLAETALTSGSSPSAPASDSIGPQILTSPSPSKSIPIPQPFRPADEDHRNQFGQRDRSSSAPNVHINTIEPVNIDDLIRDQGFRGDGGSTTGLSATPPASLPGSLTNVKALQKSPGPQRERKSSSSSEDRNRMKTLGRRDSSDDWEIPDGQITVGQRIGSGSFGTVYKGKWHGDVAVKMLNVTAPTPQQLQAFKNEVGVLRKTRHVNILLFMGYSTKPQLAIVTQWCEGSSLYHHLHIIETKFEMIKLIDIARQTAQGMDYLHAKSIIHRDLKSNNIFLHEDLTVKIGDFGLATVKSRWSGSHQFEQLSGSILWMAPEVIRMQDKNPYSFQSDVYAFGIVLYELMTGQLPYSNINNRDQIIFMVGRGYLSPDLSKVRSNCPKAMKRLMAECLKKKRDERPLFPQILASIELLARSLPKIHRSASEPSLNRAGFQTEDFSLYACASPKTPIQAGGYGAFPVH

[11] = biological target: Cyclin-dependent kinase 3 (Homo sapiens) (UniProt Q00526); assay: Inhibition of wild-type human full length CDK3 (M1 to H305 residues) expressed in bacterial expression system assessed as residual activity at 1 uM by Kinomescan method relative to control
Cyclin-dependent kinase 3 (Homo sapiens), sequence (Q00526 whole entry, looked up, the tested form may be a part): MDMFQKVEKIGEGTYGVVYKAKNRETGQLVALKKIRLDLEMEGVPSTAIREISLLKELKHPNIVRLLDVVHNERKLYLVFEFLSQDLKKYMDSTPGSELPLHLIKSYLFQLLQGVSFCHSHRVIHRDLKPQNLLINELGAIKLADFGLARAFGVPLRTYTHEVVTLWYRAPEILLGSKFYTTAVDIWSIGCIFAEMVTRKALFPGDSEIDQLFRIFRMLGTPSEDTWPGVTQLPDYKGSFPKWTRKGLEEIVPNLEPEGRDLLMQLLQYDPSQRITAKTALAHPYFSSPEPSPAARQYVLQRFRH

[12] = biological target: Dual specificity tyrosine-phosphorylation-regulated kinase 1B (Homo sapiens) (UniProt Q9Y463); assay: Inhibition of wild-type human full length DYRK1B (M1 to S629 residues) expressed in bacterial expression system assessed as residual activity at 1 uM by Kinomescan method relative to control
Dual specificity tyrosine-phosphorylation-regulated kinase 1B (Homo sapiens), sequence (Q9Y463 whole entry, looked up, the tested form may be a part): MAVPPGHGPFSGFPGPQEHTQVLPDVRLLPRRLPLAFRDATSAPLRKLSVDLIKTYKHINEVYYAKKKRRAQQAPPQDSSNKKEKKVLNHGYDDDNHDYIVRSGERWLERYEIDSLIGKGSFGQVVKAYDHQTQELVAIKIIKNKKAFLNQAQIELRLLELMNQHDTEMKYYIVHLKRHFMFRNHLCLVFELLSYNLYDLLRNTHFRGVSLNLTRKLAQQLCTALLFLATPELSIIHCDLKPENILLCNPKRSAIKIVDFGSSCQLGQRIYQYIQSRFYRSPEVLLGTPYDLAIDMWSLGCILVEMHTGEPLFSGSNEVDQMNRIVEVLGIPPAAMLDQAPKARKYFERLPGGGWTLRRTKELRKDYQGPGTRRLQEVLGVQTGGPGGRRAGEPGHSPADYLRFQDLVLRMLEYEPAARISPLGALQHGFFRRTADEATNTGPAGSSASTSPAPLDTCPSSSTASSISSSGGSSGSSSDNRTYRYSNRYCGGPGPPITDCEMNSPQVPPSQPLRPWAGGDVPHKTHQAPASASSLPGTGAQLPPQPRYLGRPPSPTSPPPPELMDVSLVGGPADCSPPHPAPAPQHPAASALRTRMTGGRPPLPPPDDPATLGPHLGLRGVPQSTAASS

[13] = biological target: Receptor-type tyrosine-protein kinase FLT3 (Homo sapiens) (UniProt P36888); assay: Inhibition of wild-type human partial length FLT3 (V592 to Y969 residues) expressed in bacterial expression system assessed as residual activity at 1 uM by Kinomescan method relative to control
[14] = biological target: Glycogen synthase kinase-3 beta (Homo sapiens) (UniProt P49841); assay: Inhibition of wild-type human full length GSK3B (M1 to T433 residues) expressed in mammalian expression system assessed as residual activity at 1 uM by Kinomescan method relative to control
[15] = biological target: Inhibitor of nuclear factor kappa-B kinase subunit alpha (Homo sapiens) (UniProt O15111); assay: Inhibition of wild-type human full length IKK-alpha (M1 to E745 residues) expressed in mammalian expression system assessed as residual activity at 1 uM by Kinomescan method relative to control
[16] = biological target: Tyrosine-protein kinase JAK2 (Homo sapiens) (UniProt O60674); assay: Inhibition of wild-type human partial length JAK2 JH1 catalytic domain (A829 to G1132 residues) expressed in mammalian expression system assessed as residual activity at 1 uM by Kinomescan method relative to control
[17] = biological target: Mast/stem cell growth factor receptor Kit (Homo sapiens) (UniProt P10721); assay: Inhibition of wild-type human partial length KIT (I571 to D952 residues) expressed in bacterial expression system assessed as residual activity at 1 uM by Kinomescan method relative to control
[18] = biological target: Serine/threonine-protein kinase STK11 (Homo sapiens) (UniProt Q15831); assay: Inhibition of wild-type human full length LKB1 (M1 to Q433 residues) expressed in bacterial expression system assessed as residual activity at 1 uM by Kinomescan method relative to control
[19] = biological target: MAP kinase-activated protein kinase 2 (Homo sapiens) (UniProt P49137); assay: Inhibition of wild-type human partial length MAPKAPK2 (V48 to D345 residues) expressed in bacterial expression system assessed as residual activity at 1 uM by Kinomescan method relative to control
MAP kinase-activated protein kinase 2 (Homo sapiens), sequence (P49137 whole entry, looked up, the tested form may be a part): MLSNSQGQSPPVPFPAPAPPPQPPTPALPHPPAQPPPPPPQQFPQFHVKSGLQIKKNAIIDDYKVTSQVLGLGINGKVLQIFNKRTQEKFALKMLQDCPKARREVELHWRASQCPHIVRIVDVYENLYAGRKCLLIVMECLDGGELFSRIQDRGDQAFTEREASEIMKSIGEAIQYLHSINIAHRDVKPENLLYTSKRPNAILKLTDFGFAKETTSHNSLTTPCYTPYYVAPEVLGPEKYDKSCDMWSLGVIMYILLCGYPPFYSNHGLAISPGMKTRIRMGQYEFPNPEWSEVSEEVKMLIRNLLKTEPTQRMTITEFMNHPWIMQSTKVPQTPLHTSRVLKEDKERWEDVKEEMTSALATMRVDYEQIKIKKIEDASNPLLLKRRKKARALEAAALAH

[20] = biological target: Dual specificity mitogen-activated protein kinase kinase 1 (Homo sapiens) (UniProt Q02750); assay: Inhibition of wild-type human full length MEK1 (M1 to V393 residues) expressed in mammalian expression system assessed as residual activity at 1 uM by Kinomescan method relative to control
Dual specificity mitogen-activated protein kinase kinase 1 (Homo sapiens), sequence (Q02750 whole entry, the tested form may be a part): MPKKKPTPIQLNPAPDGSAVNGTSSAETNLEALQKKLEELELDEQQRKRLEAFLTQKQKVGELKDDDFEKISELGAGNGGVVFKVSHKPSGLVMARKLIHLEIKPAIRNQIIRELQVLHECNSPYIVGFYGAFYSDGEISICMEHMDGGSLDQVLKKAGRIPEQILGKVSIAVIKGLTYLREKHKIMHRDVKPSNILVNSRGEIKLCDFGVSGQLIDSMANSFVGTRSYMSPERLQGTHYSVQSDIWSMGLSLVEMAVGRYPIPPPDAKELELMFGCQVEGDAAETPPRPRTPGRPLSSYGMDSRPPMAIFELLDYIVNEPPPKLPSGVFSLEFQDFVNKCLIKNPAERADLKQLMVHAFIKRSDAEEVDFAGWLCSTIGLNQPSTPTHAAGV

[21] = biological target: Mitogen-activated protein kinase 11 (Homo sapiens) (UniProt Q15759); assay: Inhibition of wild-type human full length p38-beta (M1 to Q364 residues) expressed in bacterial expression system assessed as residual activity at 1 uM by Kinomescan method relative to control
Mitogen-activated protein kinase 11 (Homo sapiens), sequence (Q15759 whole entry, the tested form may be a part): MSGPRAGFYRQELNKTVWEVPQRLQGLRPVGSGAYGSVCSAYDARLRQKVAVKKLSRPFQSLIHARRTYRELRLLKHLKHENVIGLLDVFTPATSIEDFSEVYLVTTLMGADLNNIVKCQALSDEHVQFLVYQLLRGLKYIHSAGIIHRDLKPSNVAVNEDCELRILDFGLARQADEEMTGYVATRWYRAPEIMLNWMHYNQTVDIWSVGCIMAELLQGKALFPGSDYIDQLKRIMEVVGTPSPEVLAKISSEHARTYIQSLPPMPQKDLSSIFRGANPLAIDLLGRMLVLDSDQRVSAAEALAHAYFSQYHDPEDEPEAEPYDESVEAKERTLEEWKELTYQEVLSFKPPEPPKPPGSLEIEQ

[22] = biological target: Receptor-interacting serine/threonine-protein kinase 1 (Homo sapiens) (UniProt Q13546); assay: Inhibition of wild-type human partial length RIPK1 (M1 to K305 residues) expressed in bacterial expression system assessed as residual activity at 1 uM by Kinomescan method relative to control
[23] = biological target: Rho-associated protein kinase 1 (Homo sapiens) (UniProt Q13464); assay: Inhibition of wild-type human partial length ROCK1 (M1 to R415 residues) expressed in mammalian expression system assessed as residual activity at 1 uM by Kinomescan method relative to control
[24] = biological target: TGF-beta receptor type-1 (Homo sapiens) (UniProt P36897); assay: Inhibition of wild-type human partial length TGFBR1 (D179 to M503 residues) expressed in bacterial expression system assessed as residual activity at 1 uM by Kinomescan method relative to control
[25] = biological target: Serine/threonine-protein kinase TNNI3K (Homo sapiens) (UniProt Q59H18); assay: Inhibition of wild-type human full length TNNI3K (M1 to S835 residues) expressed in bacterial expression system assessed as residual activity at 1 uM by Kinomescan method relative to control
Serine/threonine-protein kinase TNNI3K (Homo sapiens), sequence (Q59H18 whole entry, the tested form may be a part, canonical isoform): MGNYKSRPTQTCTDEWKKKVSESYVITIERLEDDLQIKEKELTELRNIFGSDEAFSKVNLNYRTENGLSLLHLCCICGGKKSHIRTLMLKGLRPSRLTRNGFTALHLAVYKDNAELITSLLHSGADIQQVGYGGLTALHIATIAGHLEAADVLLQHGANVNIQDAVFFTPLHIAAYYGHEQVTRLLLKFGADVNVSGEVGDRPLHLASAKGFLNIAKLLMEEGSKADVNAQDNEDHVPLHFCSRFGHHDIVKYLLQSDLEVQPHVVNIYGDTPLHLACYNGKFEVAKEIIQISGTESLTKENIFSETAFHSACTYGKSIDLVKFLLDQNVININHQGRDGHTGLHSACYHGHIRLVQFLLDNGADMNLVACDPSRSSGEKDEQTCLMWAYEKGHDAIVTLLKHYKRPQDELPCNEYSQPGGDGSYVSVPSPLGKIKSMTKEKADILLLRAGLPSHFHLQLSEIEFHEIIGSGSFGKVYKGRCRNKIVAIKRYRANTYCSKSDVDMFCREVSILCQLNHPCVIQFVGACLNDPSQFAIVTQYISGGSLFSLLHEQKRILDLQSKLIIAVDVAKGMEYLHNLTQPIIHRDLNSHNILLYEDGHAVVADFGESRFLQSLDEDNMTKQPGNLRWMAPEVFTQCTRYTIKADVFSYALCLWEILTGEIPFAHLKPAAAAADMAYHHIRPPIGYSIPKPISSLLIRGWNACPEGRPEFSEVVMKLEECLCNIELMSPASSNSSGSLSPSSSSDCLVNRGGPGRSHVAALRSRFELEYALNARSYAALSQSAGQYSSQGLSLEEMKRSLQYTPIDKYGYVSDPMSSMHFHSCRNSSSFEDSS

[26] = biological target: Casein kinase I isoform delta (Homo sapiens) (UniProt P48730); assay: Inhibition of wild-type human full length CSNK1D (M1 to K409 residues) expressed in bacterial expression system assessed as residual activity at 1 uM by Kinomescan method relative to control
Casein kinase I isoform delta (Homo sapiens), sequence (P48730 whole entry, looked up, the tested form may be a part, canonical isoform): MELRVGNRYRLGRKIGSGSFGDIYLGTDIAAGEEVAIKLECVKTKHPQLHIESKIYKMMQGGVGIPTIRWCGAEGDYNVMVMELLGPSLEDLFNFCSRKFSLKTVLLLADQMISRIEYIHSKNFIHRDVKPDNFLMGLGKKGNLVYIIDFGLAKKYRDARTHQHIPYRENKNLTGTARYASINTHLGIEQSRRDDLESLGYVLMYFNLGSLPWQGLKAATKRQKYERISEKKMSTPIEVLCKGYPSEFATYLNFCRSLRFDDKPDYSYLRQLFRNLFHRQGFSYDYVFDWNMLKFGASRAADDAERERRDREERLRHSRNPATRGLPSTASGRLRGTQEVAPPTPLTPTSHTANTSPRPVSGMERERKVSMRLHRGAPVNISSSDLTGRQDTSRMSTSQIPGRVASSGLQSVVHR

CCNc1cc(-c2ccc(NC(=O)Nc3cccc(Cl)c3)cc2C(F)(F)F)ccn1
Activity (BT-483 [1]): 86.2%
Activity (BT-483 [2]): 12%
Activity (SK-BR-3): Active
Activity (MDA-MB-468): Active
inhibition [3]: Active
Activity (BT-483 [4]): Non-Toxic
Activity (BT-483 [5]): Non-Toxic
Activity (BT-483 [6]): Active
Activity [7]: 90%
Activity [8]: 88%
Activity [9]: 99%
Activity [10]: 93%
Activity [11]: 87%
Activity [12]: 93%
Activity [13]: 100%
Activity [14]: 80%
Activity [15]: 95%
Activity [16]: 86%
Activity [17]: 76%
Activity [18]: 75%
Activity [19]: 95%
Activity [20]: 96%
Activity [21]: 60%
Activity [22]: 62%
Activity [23]: 70%
Activity [24]: 86%
Activity [25]: 70%
Activity [26]: 86%
